Results published in US6664224B2, “Quaternary ammonium salt and process for the preparation thereof” (priority 2000, dated 2003).

Assays:
P. aeruginosa = experiment: Anti-septic power test (USP XX); format: cell-based, Pseudomonas aeruginosa; conditions: test sample 0.002 wt %
Experimental: Solutions prepared according to the formulation set forth in Tables 10 and 11 below were subjected to anti-septic power test according to the method defined in Pharmacopoeia of the United States XX, 873 (1980). The solutions thus tested were then observed for anti-septic power after 1 hour, 4 hours, 24 hours, 7 days, 14 days, 21 days and 28 days. As test microorganisms, E. coli, P. auru. and S. Aureus were used as bacteria and A. niger and C. albicans were used as fungi. 4BAMP-6C and benzalkonium chloride were used as test samples.

Erythrocyte = experiment: Minimum hemolytic activity concentration against erythrocyte; format: cell-based; conditions: human erythrocyte, 37° C. 1 hour, O.D.540, 50% hemolysis
Experimental: Human blood was collected. The sample blood was then mixed with the equal amount of alsebar solution (glucose: 2.05 g; NaCl: 0.42 g; sodium citrate: 0.8 g; citric acid: 0.55 g; pH: 6.1). The mixture was then stored at a temperature of 4° C. Shortly before used for experiment, the alsebar stored blood was subjected to centrifugal separation. Thus, the supernatant liquid and the leukocyte layer on the erythrocyte were removed. To the erythrocyte was then added PBS in an amount of […] that of the erythrocyte to obtain a 50% erythrocyte. 10 μl of the 50% erythrocyte was then mixed with 990 μl of each of chemicals which had been diluted with PBS in amounts varying stepwise. The erythrocyte was acted upon by the chemical at a temperature of 37° C. for 1 hour. The mixture was then subjected to centrifugal separation. The supernatant liquid was collected for the measurement of the optical density at 540 nm (O.D.540). Separately, the foregoing procedure was followed except that no chemicals were used to prepare a 0% hemolytic control. The foregoing procedure was followed except that Milliq water was used instead of PBS to prepare a 100% hemolytic control. For the minimum hemolytic activity concentration of chemical, the minimum concentration at which the hemolytic concentration is […] was determined.

[1] = test system: Bacillus substilis ATCC 6633; experiment: Minimum bactericidal concentration (MBC) against bacteria; format: cell-based, Bacillus subtilis; conditions: contact 30° C. 30 minutes, culture 37° C. 24 hours
Experimental: A bacteria solution in the initial stage of logarithmic productive phase which had been adjusted with a nutrient broth according to an ordinary sterilized water dilution method such that the concentration of bacterial suspension reached 10^6 cell/ml was brought into contact with chemical solutions having concentrations which vary stepwise at a temperature of 30° C. for 30 minutes, and then transplanted to a nutrient broth where it was then allowed to stand at a temperature of 37° C. for 24 hours for culture. The nutrient broth was then examined to see if the proliferation of bacteria occurred. Thus, MBC was determined.
Five kinds of gram-negative bacteria and four kinds of gram-positive bacteria were used as sample bacteria.
BAMP-6 (Example 12), BAMD-6,8 (Example 13), BAMT-6 (Example 17) and benzalkonium chloride (Comparative Example 1) were determined for MBC value against 5 kinds of gram-negative bacteria and 4 kinds of gram-positive bacteria in the same manner as in Test Example 1.

[2] = test system: Escherichia coli K12 W 3110; experiment: Minimum development inhibiting concentration (MIC) against bacteria, broth dilution method; format: cell-based; conditions: 37° C. 24 hours
Experimental: A bacteria solution in stationary state which had been adjusted with a nutrient broth according to an ordinary broth dilution method such that the concentration of bacterial suspension reached 10^6 cell/ml was added to chemical solutions having concentrations which vary stepwise where it was then allowed to stand at a temperature of 37° C. for 24 hours for culture. The bacteria solution was then examined to see if the proliferation of bacteria occurred. Thus, MIC was determined.
Escherichia coli K12 W 3110 was used as a sample bacterium. Compounds obtained in Examples 1 to 9 and benzalkonium chloride prepared in Comparative Example 1 were used as test samples.
The compounds obtained in Examples 10 to 19 and benzalkonium chloride were determined for MIC value against Escherichia coli K12 W 3110 in the same manner as in Test Example 3.

rat = experiment: Oral toxicity test on rat (LD50); format: in vivo
Experimental: The quaternary ammonium salt of the invention is a compound having an extremely high safety, i.e., LD50 (rat) of not smaller than 2,000 mg/kg in oral toxicity test on rat.
The sample 4BAMP-6C thus obtained was then determined for oral toxicity (LD50: rat). The results were greater than 2,000 mg/kg.

[3] = test system: Escherichia coli K12 W 3110; experiment: MIC by agar plate dilution method; format: cell-based; conditions: E. coli, 37° C. 24 hours
Experimental: MIC value was determined by an agar plate dilution method according to the Law of Japanese Society of Chemotherapy. In some detail, a bacteria solution in stationary state which had been adjusted with a nutrient broth such that the concentration of bacterial suspension reached 10^6 cell/ml was added to agar culture media containing chemical solutions having concentrations which vary in two stages where it was then allowed to stand at a temperature of 37° C. for 24 hours for culture. The bacteria solution was then examined to see if the proliferation of bacteria occurred. Thus, MIC was determined.
The following three kinds of bacteria were used as sample bacteria:
Escherichia coliK12 W 3110 (E. coli);

cornea = conditions: reported; eye drop; cited from earlier work
[4] = Formulation 1 (chondroitin sodium sulfate 1 wt %)

Substance | time at which the desired anti-septic effect was confirmed (P. aeruginosa; [4]) | time at which the desired anti-septic effect was confirmed (P. aeruginosa; Formulation 2 (taurin 1 wt %)) | Minimum hemolytic activity concentration Erythrocyte (Erythrocyte) [ppm] | MBC [1] [ppm] | MIC Escherichia coli K12 W 3110 [2] [ppm] | oral toxicity LD50 (rat) | MIC [3] [ppm] | amount incorporated at which the cornea is damaged (cornea) [%]
1,4-bis(N,N-dihexyl-N-methylammoniomethyl)phenylene dichloride [Example 4BAMP-6C] | 1 h | 1 h | 400 | <2 | 2 | greater than 2,000 mg/kg | 8 | 
benzalkonium chloride [reference compound] | 24 hrs. hr. | 24 hrs. hr. | 25 | 4 | 8 |  | 32 | ≥ 0.01
